Results as given in the supplement of paper PMC10883282.
± gives the standard deviation of the averaged measurements.

How the values were obtained:
Assay in all cases: relative viability vs DMSO control (72 h) (fraction); higher = more viable cells
RD = tested on: RD
How it was run: (§1)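 Sarcoma cell lines in 384-well plates, seeded to reach 80–90% confluence, were given compound after 24 h and kept 72 h at 37 °C, 5% CO2, with 0.1% DMSO vehicle and a 5 µM positive control. Relative viability came from ATPLite as percent growth, averaged over up to triplicate wells. On the rescaled values, 1 equals full and 0 equals none.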

VA-ES-BJ = tested on: VA-ES-BJ
How it was run: as §1

HT1080 = tested on: HT1080
How it was run: as §1

KHOS-NP = tested on: KHOS-NP
How it was run: as §1

RD-ES = tested on: RD-ES
How it was run: as §1

C#Cc1cccc(Nc2ncnc3cc4c(cc23)OCCOCCOCCO4)c1 [Icotinib]
relative viability
Conditions | HT1080 | KHOS-NP | RD | RD-ES | VA-ES-BJ
0.00017 µM | 1.08 ± 0.031 | 1.083 ± 0.0088 | 1.09 ± 0.021 | 0.983 ± 0.02 | 1.09 ± 0.038
0.00051 µM | 1.11 ± 0.014 | 1.09 ± 0.018 | 1.1 ± 0.055 | 0.998 ± 0.02 | 1.1 ± 0.076
0.00152 µM | 1.09 ± 0.022 | 1.08 ± 0.017 | 1.13 ± 0.027 | 0.989 ± 0.024 | 1.1 ± 0.075
0.00457 µM | 1.1 ± 0.022 | 1.09 ± 0.019 | 1.124 ± 0.0066 | 1.01 ± 0.022 | 1.06 ± 0.03
0.01372 µM | 1.11 ± 0.064 | 1.09 ± 0.013 | 1.15 ± 0.036 | 0.991 ± 0.052 | 1.08 ± 0.07
0.04115 µM | 1.08 ± 0.037 | 1.09 ± 0.018 | 1.08 ± 0.062 | 0.982 ± 0.042 | 1.07 ± 0.011
0.1235 µM | 1.1 ± 0.029 | 1.08 ± 0.0075 | 1.12 ± 0.029 | 0.976 ± 0.033 | 1.08 ± 0.047
0.3704 µM | 1.11 ± 0.014 | 1.09 ± 0.015 | 1.15 ± 0.035 | 0.991 ± 0.025 | 1.08 ± 0.038
1.111 µM | 1.069 ± 0.0085 | 1.096 ± 0.0079 | 1.1 ± 0.035 | 0.973 ± 0.012 | 1.05 ± 0.0098
3.333 µM | 1.08 ± 0.012 | 1.08 ± 0.011 | 1.15 ± 0.028 | 0.977 ± 0.02 | 1.04 ± 0.025
10 µM | 1.06 ± 0.014 | 1.07 ± 0.025 | 1.14 ± 0.022 | 0.959 ± 0.028 | 1.01 ± 0.036

CCN1CCN(c2ccc(Nc3cc(N(C)C(=O)Nc4c(Cl)c(OC)cc(OC)c4Cl)ncn3)cc2)CC1 [Infigratinib]
relative viability
Conditions | HT1080 | KHOS-NP | RD | RD-ES | VA-ES-BJ
85 pM | 1.03 ± 0.049 | 1.07 ± 0.024 | 1.07 ± 0.038 | 0.972 ± 0.033 | 1.03 ± 0.012
0.000254 µM | 1.07 ± 0.063 | 1.12 ± 0.0053 | 1.06 ± 0.028 | 0.95 ± 0.019 | 1.048 ± 0.01
0.00076 µM | 1.072 ± 0.01 | 1.09 ± 0.031 | 1.11 ± 0.014 | 0.965 ± 0.037 | 1.03 ± 0.023
0.00229 µM | 1.04 ± 0.012 | 1.06 ± 0.02 | 1.13 ± 0.027 | 0.998 ± 0.014 | 1.04 ± 0.058
0.00686 µM | 1.053 ± 0.002 | 1.08 ± 0.024 | 1.14 ± 0.048 | 0.981 ± 0.037 | 1.04 ± 0.01
0.02058 µM | 1.067 ± 0.0055 | 1.085 ± 0.0074 | 1.12 ± 0.068 | 0.959 ± 0.012 | 0.977 ± 0.036
0.0617 µM | 1.04 ± 0.021 | 1.08 ± 0.027 | 1.12 ± 0.084 | 0.957 ± 0.017 | 1.01 ± 0.022
0.1852 µM | 1.06 ± 0.016 | 1.05 ± 0.07 | 1.14 ± 0.12 | 0.959 ± 0.021 | 0.982 ± 0.036
0.5556 µM | 1.087 ± 0.0036 | 1.06 ± 0.032 | 1.12 ± 0.071 | 0.928 ± 0.025 | 0.949 ± 0.006
1.6667 µM | 1.11 ± 0.017 | 1.08 ± 0.02 | 1.13 ± 0.072 | 0.802 ± 0.018 | 0.8949 ± 0.0058
5 µM | 1.01 ± 0.016 | 1.08 ± 0.027 | 1.11 ± 0.1 | 0.783 ± 0.014 | 0.871 ± 0.018
